One test deals with DLD-1 cancer cells. As to the kind of experiment: MTS assay, cell growth inhibition. The conditions noted are these: DLD-1 cells, 72 h incubation; test concentration not given. Format: cell-based. As for the experimental part: (§1) Cells were maintained at 37° C., 5% CO2 in DMEM media supplemented with 1% fetal bovine serum, penicillin/streptomycin and fungizone (Invitrogen). Cells were seeded into 96-well tissue culture plates at 3000 per well and cultured at 37° C. for 18 hours. Test compounds were dissolved and diluted to 300× in DMSO then diluted 1:40 in DMEM. Cells were incubated with test compounds for 72 hours followed by incubation with tetrazolium compound (3-(4,5-dimethylthiazol-2-yl)-5-(3-carboxymethoxyphenyl)-2-(4-sulfophenyl)-2H-tetrazolium, inner salt; MTS) and the electron coupling reagent, phenazine methosulfate (PMS) for 4 hours. […] The ability of compounds to inhibit cell growth in this assay is correlated with the reduction of dehydrogenase enzyme activity found in metabolically active cells. The measurement of the absorbance of the formazan was assessed using a Victor (Perkin Elmer) microplate reader at 492 nm. The calculated IC50 value is the concentration of the test compound that causes a 50% decrease in the absorbance. Selected compounds have been tested in DLD-1 and MDA-MB-231 cancer cells.
(In general: Tetrazolium dyes change colour on reduction, which living cells bring about.)

The next test deals with MDA-MB-231 cancer cells. Put plainly: MTS assay, cell growth inhibition. The format is cell-based. The conditions noted are these: MDA-MB-231 cells, 72 h incubation; test concentration not given. Here is the method:
as §1

As to `COc1ccccc1CNc1ncc2c(n1)Nc1ccccc1-n1nnnc1-2` [Compound 50, N-(2-methoxybenzyl)-9H-pyrimido[5,4-c]tetrazolo[1,5-a][1,5]benzodiazepin-11-amine], the “DLD-1, MTS, 72 h (% Inhibition)” value in the test with DLD-1 cancer cells is 54%.

For the molecule `Clc1ccccc1CCNc1ncc2c(n1)Nc1ccccc1-n1nnnc1-2` [Compound 89, N-[2-(2-chlorophenyl)ethyl]-9H-pyrimido[5,4-c]tetrazolo[1,5-a][1,5]benzodiazepin-11-amine], the “DLD-1, MTS, 72 h (% Inhibition)” value in the test on DLD-1 cancer cells is listed as 31%.

As for `Fc1ccc(CNc2ncc3c(n2)Nc2ccccc2-n2nnnc2-3)cc1F` [Compound 36, N-(3,4-difluorobenzyl)-9H-pyrimido[5,4-c]tetrazolo[1,5-a][1,5]benzodiazepin-11-amine], the “DLD-1, MTS, 72 h (% Inhibition)” value in the test with DLD-1 cancer cells is 31%.

As for `COc1cccc(CCNc2ncc3c(n2)Nc2ccccc2-n2nnnc2-3)c1` [Compound 84, N-[2-(3-methoxyphenyl)ethyl]-9H-pyrimido[5,4-c]tetrazolo[1,5-a][1,5]benzodiazepin-11-amine], in the test with DLD-1 cancer cells, the “DLD-1, MTS, 72 h (% Inhibition)” value is 42%. Regarding `CC(Nc1ncc2c(n1)Nc1ccccc1-n1nnnc1-2)c1ccccc1` (stereo not drawn) [Compound 51, N-(1-phenylethyl)-9H-pyrimido[5,4-c]tetrazolo[1,5-a][1,5]benzodiazepin-11-amine], in the test with DLD-1 cancer cells, the “DLD-1, MTS, 72 h (% Inhibition)” value was determined as 96%. Besides, the “MDA-MB-231, MTS, 72 h (% Inhibition)” value in the test with MDA-MB-231 cancer cells was found to be 98%. The matching figures for `c1ccc2c(c1)Nc1nc(NCC3CC3)ncc1-c1nnnn1-2` [Compound 9, N-(cyclopropylmethyl)-9H-pyrimido[5,4-c]tetrazolo[1,5-a][1,5]benzodiazepin-11-amine]: 98% and 92%. With `CCC(C)CNc1ncc2c(n1)Nc1ccccc1-n1nnnc1-2` (stereo not drawn) [Compound 95, N-(2-methylbutyl)-9H-pyrimido[5,4-c]tetrazolo[1,5-a][1,5]benzodiazepin-11-amine], the “DLD-1, MTS, 72 h (% Inhibition)” value with DLD-1 cancer cells came out at 97%. Besides, the “MDA-MB-231, MTS, 72 h (% Inhibition)” value with MDA-MB-231 cancer cells turned out to be 99%. The matching figures for `CCN1CCN(c2ncc3c(n2)Nc2ccccc2-n2nnnc2-3)CC1` [Compound 43, 11-(4-ethylpiperazin-1-yl)-9H-pyrimido[5,4-c]tetrazolo[1,5-a][1,5]benzodiazepine]: 32% and 90%. The matching figures for `c1ccc2c(c1)Nc1nc(NCCc3ccncc3)ncc1-c1nnnn1-2` [Compound 40, N-(2-pyridin-4-ylethyl)-9H-pyrimido[5,4-c]tetrazolo[1,5-a][1,5]benzodiazepin-11-amine]: 98% and 65%.

Regarding `CC(C)(C)OC(=O)NC1CCCN(c2ncc3c(n2)N(Cc2ccc(F)c(F)c2)c2ccccc2-n2nnnc2-3)C1` (stereo not drawn) [Compound 21, tert-butyl {1-[9-(3,4-difluorobenzyl)-9H-pyrimido[5,4-c]tetrazolo[1,5-a][1,5]benzodiazepin-11-yl]piperidin-3-yl}carbamate], the “DLD-1, MTS, 72 h (% Inhibition)” value with DLD-1 cancer cells worked out at 97%. For the same molecule, the “MDA-MB-231, MTS, 72 h (% Inhibition)” value with MDA-MB-231 cancer cells came out at 97%. In the case of `CC1CCCCC1Nc1ncc2c(n1)Nc1ccccc1-n1nnnc1-2` (stereo not drawn) [Compound 97, N-(2-methylcyclohexyl)-9H-pyrimido[5,4-c]tetrazolo[1,5-a][1,5]benzodiazepin-11-amine], the “DLD-1, MTS, 72 h (% Inhibition)” value in the test on DLD-1 cancer cells is reported as 39%. As for `Clc1ccc(CNc2ncc3c(n2)Nc2ccccc2-n2nnnc2-3)cc1` [Compound 58, N-(4-chlorobenzyl)-9H-pyrimido[5,4-c]tetrazolo[1,5-a][1,5]benzodiazepin-11-amine], the “DLD-1, MTS, 72 h (% Inhibition)” value in the test on DLD-1 cancer cells amounted to 97%. Moreover, the “MDA-MB-231, MTS, 72 h (% Inhibition)” value in the test with MDA-MB-231 cancer cells worked out at 98%. The matching figures for `CC1CCCN1c1ncc2c(n1)Nc1ccccc1-n1nnnc1-2` (stereo not drawn) [Compound 68, 11-(2-methylpyrrolidin-1-yl)-9H-pyrimido[5,4-c]tetrazolo[1,5-a][1,5]benzodiazepine]: 97% and 75%. The matching figures for `CC(Nc1ncc2c(n1)Nc1ccccc1-n1nnnc1-2)c1ccc(Cl)cc1` (stereo not drawn) [Compound 52, N-[1-(4-chlorophenyl)ethyl]-9H-pyrimido[5,4-c]tetrazolo[1,5-a][1,5]benzodiazepin-11-amine]: 97% and 98%. The matching figures for `c1ccc2c(c1)CCCC2Nc1ncc2c(n1)Nc1ccccc1-n1nnnc1-2` (stereo not drawn) [Compound 77, N-(1,2,3,4-tetrahydronaphthalen-1-yl)-9H-pyrimido[5,4-c]tetrazolo[1,5-a][1,5]benzodiazepin-11-amine]: 97% and 86%. Take `Fc1ccc(CNc2ncc3c(n2)Nc2ccccc2-n2nnnc2-3)c(Cl)c1` [Compound 102, N-(2-chloro-4-fluorobenzyl)-9H-pyrimido[5,4-c]tetrazolo[1,5-a][1,5]benzodiazepin-11-amine]: in the test with DLD-1 cancer cells, the “DLD-1, MTS, 72 h (% Inhibition)” value is recorded as 84%. On to `c1ccc2c(c1)Nc1nc(NCCN3CCCC3)ncc1-c1nnnn1-2` [Compound 37, N-(2-pyrrolidin-1-ylethyl)-9H-pyrimido[5,4-c]tetrazolo[1,5-a][1,5]benzodiazepin-11-amine], for which, in the test with DLD-1 cancer cells, the “DLD-1, MTS, 72 h (% Inhibition)” value was 95%. As for `Cc1ccc(CNc2ncc3c(n2)Nc2ccccc2-n2nnnc2-3)cc1` [Compound 73, N-(4-methylbenzyl)-9H-pyrimido[5,4-c]tetrazolo[1,5-a][1,5]benzodiazepin-11-amine], the “MDA-MB-231, MTS, 72 h (% Inhibition)” value in the test on MDA-MB-231 cancer cells stood at 39%. Regarding `c1csc(CNc2ncc3c(n2)Nc2ccccc2-n2nnnc2-3)c1` [Compound 81, N-(thiophen-2-ylmethyl)-9H-pyrimido[5,4-c]tetrazolo[1,5-a][1,5]benzodiazepin-11-amine], the “DLD-1, MTS, 72 h (% Inhibition)” value with DLD-1 cancer cells turned out to be 41%. Regarding `Cc1ccc(CNc2ncc3c(n2)Nc2ccccc2-n2nnnc2-3)cc1F` [Compound 46, N-(3-fluoro-4-methylbenzyl)-9H-pyrimido[5,4-c]tetrazolo[1,5-a][1,5]benzodiazepin-11-amine], the “DLD-1, MTS, 72 h (% Inhibition)” value in the test on DLD-1 cancer cells was 69%.

In the case of `Fc1cc(F)cc(CNc2ncc3c(n2)Nc2ccccc2-n2nnnc2-3)c1` [Compound 76, N-(3,5-difluorobenzyl)-9H-pyrimido[5,4-c]tetrazolo[1,5-a][1,5]benzodiazepin-11-amine], the “DLD-1, MTS, 72 h (% Inhibition)” value in the test with DLD-1 cancer cells was 73%. Same read-out and setting: the same measure for `Cc1ccc(CCNc2ncc3c(n2)Nc2ccccc2-n2nnnc2-3)cc1` [Compound 90, N-[2-(4-methylphenyl)ethyl]-9H-pyrimido[5,4-c]tetrazolo[1,5-a][1,5]benzodiazepin-11-amine]: 61%.

With `COc1ccccc1CCNc1ncc2c(n1)Nc1ccccc1-n1nnnc1-2` [Compound 69, N-[2-(2-methoxyphenyl)ethyl]-9H-pyrimido[5,4-c]tetrazolo[1,5-a][1,5]benzodiazepin-11-amine], the “DLD-1, MTS, 72 h (% Inhibition)” value in the test on DLD-1 cancer cells came out at 58%. The same measure, in the same setting: the same measure for `Fc1ccc(CCNc2ncc3c(n2)Nc2ccccc2-n2nnnc2-3)cc1` [Compound 74, N-[2-(4-fluorophenyl)ethyl]-9H-pyrimido[5,4-c]tetrazolo[1,5-a][1,5]benzodiazepin-11-amine]: 78%. Regarding `c1ccc(CCNc2ncc3c(n2)Nc2ccccc2-n2nnnc2-3)cc1` [Compound 35, N-(2-phenylethyl)-9H-pyrimido[5,4-c]tetrazolo[1,5-a][1,5]benzodiazepin-11-amine], the “MDA-MB-231, MTS, 72 h (% Inhibition)” value with MDA-MB-231 cancer cells came to 42%.

With `c1ccc2c(c1)Nc1nc(N3CCN(c4ccncc4)CC3)ncc1-c1nnnn1-2` [Compound 34, 11-(4-pyridin-4-ylpiperazin-1-yl)-9H-pyrimido[5,4-c]tetrazolo[1,5-a][1,5]benzodiazepine], the “DLD-1, MTS, 72 h (% Inhibition)” value in the test on DLD-1 cancer cells is recorded as 97%. Turning to `Fc1ccc(CNc2ncc3c(n2)Nc2ccccc2-n2nnnc2-3)cc1Cl` [Compound 55, N-(3-chloro-4-fluorobenzyl)-9H-pyrimido[5,4-c]tetrazolo[1,5-a][1,5]benzodiazepin-11-amine], the “DLD-1, MTS, 72 h (% Inhibition)” value in the test on DLD-1 cancer cells came out at 45%. On the same count and under the same terms, the same measure for `CC(CNc1ncc2c(n1)Nc1ccccc1-n1nnnc1-2)c1ccccc1` (stereo not drawn) [Compound 44, N-(2-phenylpropyl)-9H-pyrimido[5,4-c]tetrazolo[1,5-a][1,5]benzodiazepin-11-amine]: 51%. Same read-out and setting: the same measure for `CN1CCC(Nc2ncc3c(n2)Nc2ccccc2-n2nnnc2-3)CC1` [Compound 66, N-(1-methylpiperidin-4-yl)-9H-pyrimido[5,4-c]tetrazolo[1,5-a][1,5]benzodiazepin-11-amine]: 97%.

For `CC(C)CN(C)c1ncc2c(n1)Nc1ccccc1-n1nnnc1-2` [Compound 47, N-methyl-N-(2-methylpropyl)-9H-pyrimido[5,4-c]tetrazolo[1,5-a][1,5]benzodiazepin-11-amine], the “DLD-1, MTS, 72 h (% Inhibition)” value with DLD-1 cancer cells was found to be 46%. Still for that read-out and setting: the same measure for `Cc1cccc(CNc2ncc3c(n2)Nc2ccccc2-n2nnnc2-3)c1` [Compound 83, N-(3-methylbenzyl)-9H-pyrimido[5,4-c]tetrazolo[1,5-a][1,5]benzodiazepin-11-amine]: 89%. Regarding `c1ccc(CC2CCN(c3ncc4c(n3)Nc3ccccc3-n3nnnc3-4)CC2)cc1` [Compound 105, 11-(4-benzylpiperidin-1-yl)-9H-pyrimido[5,4-c]tetrazolo[1,5-a][1,5]benzodiazepine], the “MDA-MB-231, MTS, 72 h (% Inhibition)” value in the test with MDA-MB-231 cancer cells turned out to be 56%.
